Measured values from the supplement of paper PMC10307832.

What was measured:
Assay in all cases: relative viability (nuclei count vs DMSO), 5 days (fraction); higher = more cells survive
[1] = compound: C(C(=O)C(=O)O)Br [Bromopyruvate] + CC(=O)Nc1cccc(-n2c(=O)n(C3CC3)c(=O)c3c(Nc4ccc(I)cc4F)n(C)c(=O)c(C)c32)c1 [Trametinib] (partner 0.02 µM)
How it was run: (§1)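 Dosing by pin tool came one day after lung cancer cell lines were seeded in 1536-well plates, using either one drug or a fixed anchor-drug dose plus five library-drug doses (not always all listed) in √10 steps. After 5 days, nuclei were counted on 4× images. Relative viability is treated-well nuclei count divided by vehicle-well nuclei count, and values are medians of duplicate plates.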

[2] = compound: C(C(=O)C(=O)O)Br [Bromopyruvate] + NC(=O)Nc1cc(-c2cccc(F)c2)sc1C(=O)N[C@H]1CCCNC1 [AZD7762] (partner 0.2 µM)
How it was run: as §1

[3] = compound: C(C(=O)C(=O)O)Br [Bromopyruvate] + CS(=O)(=O)N1CCN(Cc2cc3nc(-c4cccc5[nH]ncc45)nc(N4CCOCC4)c3s2)CC1 [Pictilisib] (partner 1 µM)
How it was run: as §1

[4] = compound: CC(O)(CS(=O)(=O)c1ccc(F)cc1)C(=O)Nc1ccc(C#N)c(C(F)(F)F)c1 [Bicalutamide] + N=C(N)NC(=N)NCCc1ccccc1 [Phenformin] (partner 250 µM)
How it was run: as §1

Row | Cell Line | relative viability ([1]; first compound 1 µM) | relative viability ([1]; first compound 3.162 µM) | relative viability ([1]; first compound 10 µM) | relative viability ([1]; first compound 31.62 µM) | relative viability ([1]; first compound 100 µM) | relative viability ([2]; first compound 1 µM) | relative viability ([2]; first compound 3.162 µM) | relative viability ([2]; first compound 10 µM) | relative viability ([2]; first compound 31.62 µM) | relative viability ([2]; first compound 100 µM) | relative viability ([3]; first compound 1 µM) | relative viability ([3]; first compound 3.162 µM) | relative viability ([3]; first compound 10 µM) | relative viability ([3]; first compound 31.62 µM) | relative viability ([3]; first compound 100 µM) | relative viability ([4]; first compound 0.08 µM) | relative viability ([4]; first compound 0.253 µM) | relative viability ([4]; first compound 0.8 µM) | relative viability ([4]; first compound 2.53 µM)
1 | NCI-H647 | 0.425 | 0.472 | 0.665 | 0.473 | 0.488 | 0.565 | 0.63 | 0.405 | 0.553 | 0.568 | 0.433 | 0.421 | 0.393 | 0.474 | 0.455 | 0.646 | 0.596 | 0.758 | 0.385
2 | NCI-H838 | 0.521 | 0.529 | 0.68 | 0.539 | 0.516 | 0.914 | 0.913 | 1.02 | 0.949 | 0.935 | 0.463 | 0.446 | 0.495 | 0.493 | 0.448 | 0.588 | 0.573 | 0.748 | 0.337
3 | H3255 | 0.55 | 0.547 | 0.647 | 0.574 | 0.718 | 0.907 | 0.86 | 0.964 | 0.886 | 0.836 | 0.479 | 0.503 | 0.45 | 0.519 | 0.588 | 0.42 | 0.337 |  | 0.352
4 | NCI-H1437 | 0.552 | 0.529 | 0.556 | 0.506 | 0.484 | 1.15 | 1.1 | 1.22 | 1.12 | 1.14 | 0.464 | 0.502 | 0.47 | 0.413 | 0.496 | 0.341 | 0.264 | 0.422 | 0.309
5 | LU99A | 0.521 | 0.531 | 0.621 | 0.564 | 0.661 | 0.318 | 0.364 | 0.346 | 0.362 | 0.341 | 0.306 | 0.29 | 0.319 | 0.306 | 0.35 | 0.917 | 0.715 | 0.997 | 0.663
6 | HCC-827 | 0.51 | 0.542 | 0.579 | 0.551 | 0.568 | 0.175 | 0.195 | 0.198 | 0.203 | 0.19 | 1.08 | 0.909 | 1.14 | 1.17 | 0.849 | 0.405 | 0.316 | 0.412 | 0.443
7 | LK-2 | 0.742 | 0.92 | 0.872 | 0.782 | 0.519 | 0.423 | 0.458 | 0.266 | 0.474 | 0.387 | 0.548 | 0.526 | 0.59 | 0.704 | 0.642 | 0.526 | 0.198 | 0.498 | 0.629
8 | HCC-366 | 0.361 | 0.322 | 0.41 | 0.359 | 0.322 | 0.272 | 0.346 | 0.197 | 0.254 | 0.249 | 0.157 | 0.208 | 0.205 | 0.143 | 0.164 | 0.568 | 0.615 | 0.699 | 0.64
9 | BEN | 1.03 | 0.983 | 1.18 | 0.97 | 1.2 | 0.806 | 0.662 | 0.743 | 0.613 | 0.619 | 0.64 | 0.505 | 0.63 | 0.552 | 0.508 | 0.257 | 0.262 | 0.28 | 0.279
10 | NCI-H2347 | 0.224 | 0.28 | 0.335 | 0.248 | 0.274 | 0.751 | 0.79 | 0.754 | 0.711 | 0.773 | 0.899 | 0.478 | 0.737 | 0.541 | 0.677 | 0.368 | 0.462 | 0.421 | 0.268
11 | NCI-H1395 | 0.982 | 0.977 | 1.16 | 1.02 | 1.08 | 0.447 | 0.398 | 0.426 | 0.414 | 0.42 | 0.556 | 0.561 | 0.568 | 0.629 | 0.615 | 0.467 | 0.417 | 0.478 | 0.446
12 | 201T | 0.709 | 0.719 | 0.709 | 0.725 | 0.755 | 0.638 | 0.715 | 0.6 | 0.594 | 0.603 | 0.724 | 0.692 | 0.626 | 0.683 | 0.7 | 0.503 | 0.414 | 0.481 | 0.416
13 | NCI-H2170 | 0.918 | 0.923 | 0.99 | 0.902 | 0.925 | 0.923 | 0.989 | 1.19 | 0.893 | 0.854 | 0.435 | 0.367 | 0.274 | 0.319 | 0.306 | 0.418 | 0.412 | 0.429 | 0.47
14 | NCI-H727 | 0.42 | 0.376 | 0.461 | 0.428 | 0.36 | 0.664 | 0.582 | 0.635 | 0.521 | 0.53 | 0.359 | 0.417 | 0.604 | 0.389 | 0.339 | 0.618 |  | 0.734 | 0.821
15 | HCC-15 | 0.349 | 0.385 | 0.386 | 0.369 | 0.393 | 1.22 | 1.25 | 1.32 | 1.25 | 1.22 | 0.719 | 0.719 | 0.808 | 0.732 | 0.7 | 0.513 | 0.418 | 0.6 | 0.484
16 | LCLC-103H | 0.681 | 0.692 | 0.696 | 0.693 | 0.767 | 0.726 | 0.804 | 0.951 | 0.751 | 0.901 | 0.508 | 0.596 | 0.684 | 0.524 | 0.592 | 0.305 | 0.326 | 0.379 | 0.355
17 | NCI-H460 | 0.164 | 0.101 | 0.132 | 0.18 | 0.235 | 0.676 | 0.698 | 0.721 | 0.565 | 0.621 | 0.483 | 0.315 | 0.419 | 0.358 | 0.349 | 0.559 | 0.524 | 0.834 | 0.52
